Values quoted from earlier work, collected in US8168224B2, “Sodium alginate microsphere vascular embolus containing water-soluble drug and preparation and application thereof” (Beijing Shengyiyao Science & Technology Development Co., …, priority 2007, dated 2012).

Key:
[1] = tested on: human ovary cancer cell strain SKOV3; conditions: As2O3 within normal clinical dosage range; radiation in routine graded dosages
[2] = tested on: primary liver cancer; conditions: 20 mg/d for 5 consecutive days
[3] = tested on: rabbit Vx2 hepatic transplantation carcinoma; conditions: hepatic artery catheter perfusion; dose dependent
[4] = tested on: HUVECs
[5] = tested on: K562 and K562/ADM; conditions: dosage-time effect
[6] = tested on: human ovary cancer strain 3AO; conditions: 3AO cells in vitro, compared with cisplatin (cDDP)
[7] = tested on: human liver cancer cell strain HepG2; conditions: combination with TNF
[8] = tested on: angiogenesis in CAM
[9] = tested on: acute non-APL (ANPL); conditions: versus Ara-C, Homoharringtonine, VCR and DNR

Substance: Arsenic trioxide [As2O3]
- radiation enhancement [1]: enhance effect of the radiation therapy
- side effects ([2]; 4 courses, local pump administration): No explicit side effects
- PR (lesions shrank by 50% plus, no new lesions) ([2]; 17 patients unsuitable for surgery, after 4 therapeutic courses): 35.2%
- overall effectiveness rate ([2]; 17 patients, after 4 therapeutic courses): 41.1%
- inhibition of rabbit Vx2 hepatic transplantation carcinoma [3]: significantly effective in treating tumors
- growth of HUVECs [4]: inhibit growth of HUVECs
- expression of Bcl-2 protein [5]: inhibit expression of Bcl-2 protein of K562 and K562/ADM
- growth inhibition, apoptosis induction and S phase block compared with cDDP [6]: more effective in inhibiting growth, inducing apoptosis and blocking S phase of 3AO
- combination effect on inducing apoptosis [7]: synergistic
- angiogenesis [8]: inhibit angiogenesis
- cross drug resistance [9]: free from cross drug resistance with Ara-C, Homoharringtonine and VCR, but partly has cross drug resistance with DNR
